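Following 48 hours of exposure in 96-well plates, responses at five concentrations were used to interpolate endpoints linearly. The concentration for 50% growth inhibition is given as GI50.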 Active and inactive are the calls of the source. Cut-off read from the data, not from the text of the source: active = GI50 up to about 1.1 µM and inactive = higher.
Columns and labels:
Experiment in all cases: growth of human tumour cells (NCI), 48 h
SNB-78 = tested on: SNB-78
RPMI-8226 = tested on: RPMI-8226
SW-620 = tested on: SW-620
XF498 = tested on: XF498
COLO 205 = tested on: COLO 205
SNB-19 = tested on: SNB-19
DMS-114 = tested on: DMS-114
NCI-H522 = tested on: NCI-H522
SR = tested on: SR
A549 = tested on: A549
HOP-18 = tested on: HOP-18
SN12C = tested on: SN12C
LXFL 529 = tested on: LXFL 529
HCT-15 = tested on: HCT-15
DLD-1 = tested on: DLD-1
U-251 = tested on: U-251
CAKI-1 = tested on: CAKI-1
SK-OV-3 = tested on: SK-OV-3
MDA-N = tested on: MDA-N
OVCAR-3 = tested on: OVCAR-3
MDA-MB-231 = tested on: MDA-MB-231
K562 = tested on: K562
M19-MEL = tested on: M19-MEL
DMS-273 = tested on: DMS-273
Hs-578T = tested on: Hs-578T
UACC-62 = tested on: UACC-62
LOX IMVI = tested on: LOX IMVI
OVCAR-8 = tested on: OVCAR-8
SF-268 = tested on: SF-268
KM-20L2 = tested on: KM-20L2
A498 = tested on: A498
ACHN = tested on: ACHN
CCRF-CEM = tested on: CCRF-CEM
OVCAR-4 = tested on: OVCAR-4
HOP-92 = tested on: HOP-92
SF-295 = tested on: SF-295
SK-MEL-28 = tested on: SK-MEL-28
SF-539 = tested on: SF-539
HT-29 = tested on: HT-29
UACC-257 = tested on: UACC-257
HCC 2998 = tested on: HCC 2998
HOP-62 = tested on: HOP-62
SNB-75 = tested on: SNB-75
IGROV-1 = tested on: IGROV-1
RXF 393 = tested on: RXF 393
OVCAR-5 = tested on: OVCAR-5
TK-10 = tested on: TK-10
NCI-H23 = tested on: NCI-H23
Malme-3M = tested on: Malme-3M
SK-MEL-2 = tested on: SK-MEL-2
NCI-H460 = tested on: NCI-H460
HCT-116 = tested on: HCT-116
EKVX = tested on: EKVX
786-0 = tested on: 786-0
M14 = tested on: M14
NCI-H226 = tested on: NCI-H226
HL-60 = tested on: HL-60
UO-31 = tested on: UO-31
KM12 = tested on: KM12
MOLT-4 = tested on: MOLT-4
SK-MEL-5 = tested on: SK-MEL-5

Measured: GI50

COc1ccc2c(c1)c[n+](C)c1c3cc(OC)c(OC)cc3ccc21
24.9 µM: HCT-15
inactive: SNB-78 6.95 µM | RPMI-8226 1.75 µM | SW-620 1.55 µM | XF498 4.23 µM | COLO 205 1.41 µM | SNB-19 4.78 µM | DMS-114 1.98 µM | NCI-H522 1.67 µM | SR 1.38 µM | A549 2.74 µM | HOP-18 12.4 µM | SN12C 2.91 µM | LXFL 529 1.96 µM | DLD-1 4.86 µM | U-251 1.94 µM | CAKI-1 17.6 µM | SK-OV-3 9.4 µM | MDA-N 2.5 µM | OVCAR-3 4.16 µM | MDA-MB-231 1.59 µM | K562 2.04 µM | M19-MEL 6.44 µM | DMS-273 1.57 µM | Hs-578T 2.23 µM | UACC-62 11.3 µM | LOX IMVI 1.95 µM | OVCAR-8 1.73 µM | SF-268 2.75 µM | KM-20L2 4.84 µM

CCOC1C(Br)Cn2c(=O)c3cc4ccccc4cc3c(=O)n2C1C (stereo unspecified)
inactive: A498 12.2 µM | ACHN > 100 µM | SNB-78 > 100 µM | CCRF-CEM 50.1 µM | OVCAR-4 > 100 µM | HOP-92 97.7 µM | SF-295 71.8 µM | SK-MEL-28 > 100 µM | SF-539 > 100 µM | RPMI-8226 33.8 µM | SW-620 91.8 µM | HT-29 27.5 µM | XF498 31 µM | COLO 205 56.6 µM | SNB-19 > 100 µM | UACC-257 60.4 µM | HCC 2998 50.6 µM | DMS-114 44.8 µM | HOP-62 > 100 µM | SNB-75 39.4 µM | IGROV-1 > 100 µM | RXF 393 > 100 µM | NCI-H522 1.67 µM | OVCAR-5 > 100 µM | SR 34 µM | TK-10 > 100 µM | A549 67.3 µM | NCI-H23 > 100 µM | SN12C > 100 µM | LXFL 529 35.8 µM | DLD-1 54.3 µM | Malme-3M > 100 µM | SK-MEL-2 > 100 µM | U-251 > 100 µM | CAKI-1 55.1 µM | SK-OV-3 > 100 µM | OVCAR-3 > 100 µM | NCI-H460 40.3 µM | HCT-116 58.9 µM | EKVX 47.6 µM | 786-0 > 100 µM | M14 42.5 µM | K562 37.6 µM | M19-MEL 55.6 µM | DMS-273 40.6 µM | NCI-H226 > 100 µM | HL-60 44.9 µM | UO-31 78.5 µM | KM12 > 100 µM | MOLT-4 29.4 µM | LOX IMVI 73.5 µM | SK-MEL-5 31.1 µM | OVCAR-8 > 100 µM | SF-268 > 100 µM | KM-20L2 68.9 µM
43.6 µM: HCT-15

Source: ChEMBL document CHEMBL1201862, “PubChem BioAssay data set” (2004)
